Measured values: patent US4895842A, “Phenylalanine derivative and proteinase inhibitor” (Shosuke Okamoto, priority 1985, dated 1990)

Legend:
[1] = target: T1, human plasmin (Homo sapiens, UniProt P00747); experiment: biochemical; conditions: read-out: Plasmin S-2251 (I50)
Protocol: An inhibitor sample is dissolved in a 0.05M Tris-hydrochloric acid buffer solution (pH=7.4) to make the total volume of 400 μl. […] Then, 50 μl of a 0.2 casein unit/ml human plasmin is added and the mixture is incubated at a temperature of 37° C. for 4 minutes. Thereafter, the reaction is stopped by adding 50 μl of 50% acetic acid.
Thus, the concentration I50 (μmol) of the inhibitor sample, at which the absorbance is one half (i.e., 1/2) of that obtained in the absence of the inhibitor, is determined.

[2] = target: T1, human plasmin; experiment: Antiplasmin activity: inhibition of fibrin decomposition; assay type: biochemical; conditions: Table 2; concentration at which fibrin dissolution time is extended twice, pH 7.4, 37° C.; read-out: Plasmin Fibrin (I50)
Protocol: (i) Determination of inhibition activity for fibrin decomposition
An inhibitor sample is dissolved in a 0.18M borate-physiological salt buffer solution (pH=7.4) to make the total volume to 600 μl. To this buffer solution, 200 μl of a 0.2% bovine fibrinogen, 100 μl of a 0.3 casein unit/ml human plasmin solution, and 100 μl of a 50 unit/ml bovine thrombin solution, all dissolved in the above-mentioned buffer, are added at a temperature of 37° C. in a constant temperature bath. Then, the dissolution time of the fibrin mass formed above is determined.

[3] = target: T2, bovine thrombin (Bos taurus, UniProt P00735); experiment: Antithrombin activity: inhibition of S-2238 decomposition; assay type: biochemical; conditions: Table 2; S-2238 substrate, pH 8.3, 37° C.; read-out: Thrombin S-2238 (I50)
Protocol: (ii) Determination of inhibition activity for S-2238 decomposition
An inhibitor sample is dissolved in a 0.05M Tris-hydrochloric acid buffer solution (pH=8.3) to make a total volume of 400 μl. To this solution, 50 μl of a 0.2 mM S-2238 solution is added and the mixture is incubated at a temperature of 37° C. for 5 minutes in a constant temperature bath. Then, 50 μl of a 0.2 unit/ml bovine thrombin solution is added thereto and the absorbance, at 405 nm, of the p-nitroaniline formed per minute is determined at a temperature of 37° C. by using the so-called initial velocity method. Thus, the concentration I50 (μmol) of the inhibitor sample at which the absorbance is one half (i.e., 1/2) of that obtained in the absence of the inhibitor sample, is determined.

[4] = target: T2, bovine thrombin; experiment: Antithrombin activity: inhibition of fibrin formation from fibrinogen; assay type: biochemical
Protocol: (i) Determination of inhibition activity against fibrin formation
An inhibitor sample is dissolved in a 0.18M borate-physiological salt buffer solution (pH=7.4) to make the total volume to 500 μl. To this solution, 400 μl of a 0.2% bovine fibrinogen solution and 100 μl of a 4 unit/ml bovine thrombin solution are added at a temperature of 37° C. in a constant temperature bath. Thus, a coagulation time is determined. The inhibitor concentration I50 (μmol), at which the coagulation time obtained in the absence of the inhibitor is extended twice, is determined.

[5] = target: human plasma kallikrein (Homo sapiens, UniProt P03952); experiment: Anti-plasma kallikrein activity: inhibition of S-2302 decomposition; assay type: biochemical; conditions: Table 2; S-2302 substrate, pH 7.8, 37° C.; read-out: Plasma Kallikrein S-2302 (I50)
[6] = target: human urokinase (Homo sapiens, UniProt P00749); experiment: biochemical; conditions: Table 2; S-2444 substrate, pH 8.8, 37° C.; read-out: Urokinase S-2444 (I50)
Protocol: Determination of inhibition activity for S-2444 decomposition
An inhibitor sample is dissolved in a 0.05M Tris-hydrochloric acid buffer solution (pH=8.8) to make the total volume to 400 μl. To this solution, 50 μl of a 1 mM S-2444 solution is added and the mixture is incubated at a temperature of 37° C. for 5 minutes in a constant temperature bath. Then, 50 μl of a 500 unit/ml human urokinase is added and the mixture is incubated at a temperature of 37° C. for 5 minutes. Thereafter, 50 μl of 50% acetic acid is added to terminate the reaction. The absorbance of the p-nitroaniline formed in the reaction mixture is measured at 405 nm. Thus, the concentration I50 (μmol) of the inhibitor sample, at which the absorbance is one half (i.e., 1/2) of that obtained in the absence of the inhibitor sample, is determined.

[7] = target: T3, bovine trypsin (Bos taurus, UniProt P00760); experiment: Antitrypsin activity: inhibition of S-2238 decomposition; assay type: biochemical; conditions: Table 2; S-2238 substrate, pH 8.1, 37° C.; read-out: Trypsin S-2238 (I50)
T3 sequence (P00760 24-246): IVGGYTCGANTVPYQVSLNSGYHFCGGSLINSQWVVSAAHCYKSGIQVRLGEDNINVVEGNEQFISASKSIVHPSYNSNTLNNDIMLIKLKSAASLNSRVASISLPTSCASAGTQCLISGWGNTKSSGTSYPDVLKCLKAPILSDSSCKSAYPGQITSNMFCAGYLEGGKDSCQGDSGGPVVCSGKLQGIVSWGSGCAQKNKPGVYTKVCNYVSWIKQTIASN
Protocol: Determination of inhibition activity against S-2238 decomposition
An inhibitor sample is dissolved in a 0.05M Tris-imidazole buffer solution (pH=8.1) and 125 μl of a 1 mM S-2238 solution is added to make the total volume to 1.20 ml. The mixture is incubated at a temperature of 37° C. for 5 minutes in a constant temperature bath. To this mixture, 0.05 ml of bovine trypsin is added and the absorbance, at 405 nm, of the p-nitroaniline formed per minute is determined at a temperature of 37° C. by using the so-called initial velocity method. Thus, the concentration I50 (μmol) of the inhibitor sample, at which the absorbance is one half (i.e., 1/2) of that obtained in the absence of the inhibitor sample, is determined.

T1 sequence (P00747 581-810 limits assumed): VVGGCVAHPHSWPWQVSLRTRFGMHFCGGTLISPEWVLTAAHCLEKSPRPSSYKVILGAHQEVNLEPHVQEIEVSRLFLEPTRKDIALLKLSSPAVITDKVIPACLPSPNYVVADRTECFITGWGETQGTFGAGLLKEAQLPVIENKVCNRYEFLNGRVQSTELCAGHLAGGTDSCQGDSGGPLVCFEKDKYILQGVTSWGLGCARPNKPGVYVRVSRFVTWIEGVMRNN
T1 sequence (P00747 97-580 partner limits assumed): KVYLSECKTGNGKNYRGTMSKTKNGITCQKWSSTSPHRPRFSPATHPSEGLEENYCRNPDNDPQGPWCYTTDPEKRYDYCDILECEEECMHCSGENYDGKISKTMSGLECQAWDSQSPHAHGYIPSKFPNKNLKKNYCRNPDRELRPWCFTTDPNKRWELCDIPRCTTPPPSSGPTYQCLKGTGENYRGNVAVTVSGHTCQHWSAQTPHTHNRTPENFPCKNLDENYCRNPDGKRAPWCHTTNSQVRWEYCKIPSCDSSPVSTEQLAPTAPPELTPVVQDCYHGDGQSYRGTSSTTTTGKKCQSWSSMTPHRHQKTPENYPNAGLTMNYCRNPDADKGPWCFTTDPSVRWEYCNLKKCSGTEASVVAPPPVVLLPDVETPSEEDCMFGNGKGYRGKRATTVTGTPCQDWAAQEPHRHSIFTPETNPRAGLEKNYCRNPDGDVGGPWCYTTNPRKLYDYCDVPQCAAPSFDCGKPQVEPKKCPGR
Chain of human plasma kallikrein (P03952 391-638 limits assumed): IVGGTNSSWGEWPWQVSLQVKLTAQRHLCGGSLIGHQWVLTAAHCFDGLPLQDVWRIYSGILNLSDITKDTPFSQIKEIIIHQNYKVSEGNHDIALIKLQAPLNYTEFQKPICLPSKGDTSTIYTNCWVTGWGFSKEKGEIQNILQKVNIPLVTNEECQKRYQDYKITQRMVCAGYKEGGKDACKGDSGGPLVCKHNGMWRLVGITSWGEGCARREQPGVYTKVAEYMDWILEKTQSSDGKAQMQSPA
Chain of human plasma kallikrein (P03952 20-390 partner limits assumed): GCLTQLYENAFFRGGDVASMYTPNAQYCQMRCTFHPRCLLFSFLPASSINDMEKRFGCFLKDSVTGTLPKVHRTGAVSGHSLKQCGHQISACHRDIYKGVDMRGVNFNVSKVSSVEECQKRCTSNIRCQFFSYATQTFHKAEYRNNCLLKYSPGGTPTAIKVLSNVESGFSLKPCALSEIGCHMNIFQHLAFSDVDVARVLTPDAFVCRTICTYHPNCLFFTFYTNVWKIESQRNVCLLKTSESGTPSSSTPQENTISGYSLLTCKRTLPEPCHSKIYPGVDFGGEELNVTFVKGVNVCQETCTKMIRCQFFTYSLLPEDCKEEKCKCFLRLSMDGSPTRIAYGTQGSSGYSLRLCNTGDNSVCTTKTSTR

Row | SMILES | IC50 [1] | IC50 [2] | IC50 [3] | IC50 [4] | IC50 [5] | IC50 [6] | IC50 [7]
1 | Cc1ccc(NC(=O)[C@H](Cc2ccc(OCc3ccccc3)cc2)NC(=O)[C@H]2CC[C@H](CN)CC2)cc1 [compound 26] | 6.9 µM | 1.1 µM | > 100 µM | > 100 µM | 2.1 µM | 560 µM | –
2 | CC(=O)c1ccc(NC(=O)[C@H](Cc2ccc(OCc3ccc(Cl)c(Cl)c3)cc2)NC(=O)[C@H]2CC[C@H](CN)CC2)cc1 [compound 45] | 0.58 µM | 0.091 µM | – | – | 0.46 µM | 70 µM | 0.84 µM
3 | Cc1ccc(NC(=O)[C@H](Cc2ccc(OCc3ccccc3)cc2)NC(=O)c2ccc(CN)cc2)cc1 [compound 63] | 5.6 µM | 1.4 µM | – | > 50 µM | 24 µM | > 100 µM | 10 µM
4 | Cc1ccc(NC(=O)[C@H](Cc2ccc(OCc3ccccc3)cc2)NC(=O)c2ccc(CN)cc2)cc1C [compound 65] | 2.9 µM | 1 µM | – | > 50 µM | 22 µM | > 200 µM | 5 µM
5 | NC[C@H]1CC[C@H](C(=O)N[C@@H](Cc2ccc(OCc3cccc(Cl)c3)cc2)C(=O)Nc2ccc(C(=O)c3ccccc3)cc2)CC1 [compound 67] | 1.1 µM | 0.14 µM | – | > 20 µM | 1.2 µM | 40 µM | 0.44 µM
6 | CC1CCC(NC(=O)C(Cc2ccc(OCc3cccc(Cl)c3)cc2)NC(=O)c2ccc(CN)cc2)CC1C (stereo not drawn) [compound 103] | 0.78 µM | 0.12 µM | – | – | 18 µM | > 100 µM | 1.2 µM
7 | CC1CCC(NC(=O)C(Cc2ccc(OCc3ccc(F)cc3)cc2)NC(=O)c2ccc(CN)cc2)CC1C (stereo not drawn) [compound 106] | 1.4 µM | 0.54 µM | – | > 50 µM | 19 µM | > 150 µM | 3 µM
8 | NCc1ccc(C(=O)NC(Cc2ccc(OCc3ccccc3)cc2)C(=O)NCc2ccc(F)cc2)cc1 (stereo not drawn) [compound 113] | 8.3 µM | 1.7 µM | – | > 50 µM | > 25 µM | > 20 µM | 18 µM
9 | CC(=O)c1ccc(NC(=O)[C@H](Cc2ccc(OCc3cc(Cl)ccc3Cl)cc2)NC(=O)[C@H]2CC[C@H](CN)CC2)cc1 [compound 125] | 0.49 µM | 0.13 µM | – | – | 0.38 µM | 47 µM | 0.8 µM
10 | N=C(N)c1ccc(NC(=O)[C@H](Cc2ccc(OCc3ccccc3)cc2)NC(=O)[C@H]2CC[C@H](CN)CC2)cc1 [compound 126] | 1.5 µM | 0.83 µM | – | > 200 µM | 3.5 µM | 6.3 µM | 0.45 µM
11 | CC(=O)c1ccc(NC(=O)[C@H](Cc2ccc(OC(=O)OCc3ccccc3Br)cc2)NC(=O)[C@H]2CC[C@H](CN)CC2)cc1 [compound 144] | 0.23 µM | 0.051 µM | – | > 50 µM | 0.37 µM | 43 µM | 0.95 µM
